Source: PMC4698308, “A new amino acid substitution (Ala-205-Phe) in acetolactate synthase (ALS) confers broad spectrum resistance to ALS-inhibiting herbicides” (Planta, 2015)

Columns and labels:
[1] = test system: annual bluegrass (Poa annua L.); assay: Whole plant confirmation of target-site resistance (visual control and dry biomass 28 days after treatment); format: in vivo
Description: Progeny of all POAAN-R3 plants subjected to genetic sequencing (RP1–RP8) were surface seeded into separate 10.2 × 10.2 cm greenhouse pots (Dillen Products/Myers Industries, Inc. Middlefield, OH, USA.) filled with a peat moss growing medium (ProMix BX Mycorrhizae. Premier Tech Horticulture, Quakertown, PA, USA) on 5 January 2015. The susceptible annual bluegrass population (S) included in our sequencing analysis was also seeded in the same fashion.
After seeding, pots were placed inside a growth chamber (Conviron A1000. Controlled Environments Inc, Hendersonville, NC) configured to provide 14 h day at 19 °C and a 10 h night at 10 °C. Light intensity inside the chamber averaged 296 μmol m^−2 s^−1. Irrigation was applied to each pot daily using distilled water and a misting nozzle. Annual bluegrass emergence was first noted on 16 January 2015. Plants remained inside the growth chamber until 26 January 2015. On this date, seedlings of each plant (RP1–RP8, S) were transplanted into individual 164 cm^3 plastic conical containers (SC10 Super Cell Cone-tainer. Stuewe and Sons. Tangent, OR 97389) filled with Sequatchie silt loam (fine-loamy, siliceous, semiactive, thermic humic Hapludult) measuring 6.2 in soil pH and 2.1 % in organic matter content. Transplants were replicated such that 32 plastic conical containers were created for each annual bluegrass plant analyzed in previous experiments (RP1–RP8, S). Immediately after transplanting, plastic conical containers were placed in a glasshouse located at the University of Tennessee (Knoxville, TN, USA; 35.56, 83.56). Peak light intensity in this glasshouse averaged 714 μmol m^−2 s^−1 with day/night temperatures averaging 27/17 °C. Irrigation was applied daily using an overhead misting system and plants were not clipped prior to initiating this study.
Plants were allowed to acclimate to this glasshouse environment for 10 days prior to being treated with foramsulfuron (Revolver. Bayer Environmental Sciences. Research Triangle Park, NC, USA) at 29 g ha^−1, imazamox (Clearcast. BASF Corporation. Research Triangle Park, NC) at 140 g ha^−1, or simazine (Princep 4L. Syngenta Professional Products. Greensboro, NC) at 1120 g ha^−1. Per label recommendations, imazamox and simazine treatments included a non-ionic surfactant (Activator-90. Loveland Products Inc. Greeley, CO, USA) at 0.25 % v/v. All treatments were applied in an enclosed spray chamber (Generation III track sprayer. DeVries Manufacturing, Hollandale, MN, USA) using a water carrier at 215 L ha^−1 through an 8004 EVS nozzle (TeeJet, Technologies, Spraying Systems Co., Glendale Heights, IL, USA). These herbicide treatments were selected to confirm results of genetic sequencing that RP1–RP8 were resistant to sulfonylurea, imidazolinone, and photosystem II inhibiting herbicides. A non-treated control treatment was included with each resistant (RP1–RP8) and susceptible (S) plant for comparison. Herbicides were applied on 5 February 2015 when plants were at a two-to-three leaf stage, prior to annual bluegrass tiller formation.
Annual bluegrass control was visually assessed on a 0 (i.e., no control) to 100 % (i.e., complete kill) scale relative to the non-treated 28 days after treatment. After all control data had been collected, aboveground biomass was harvested from each plastic conical container at the soil line using scissors, dried at 100 °C for 3 days, and weighed.
Treatments were arranged as a 9 × 4 factorial with nine plant selections (i.e., RP1–RP8, S) and four herbicide treatments (i.e., foramsulfuron, imazamox, simazine, non-treated) in a completely randomized design with four replications and repeated in time and space during February 2015. Plants were the same age during both experimental runs.

[2] = test system: annual bluegrass (Poa annua L.); assay: Whole plant non-target site resistance experiment with P450 inhibitors malathion or PBO (control 21 days after treatment); format: in vivo; settings: for Annual bluegrass control S: susceptible (S)

Q: For `COc1cc(OC)nc(NC(=O)NS(=O)(=O)c2cc(NC=O)ccc2C(=O)N(C)C)n1` [Foramsulfuron], which “annual bluegrass control, resistant plants with the exception of RP6” value ([1]; 28 days after treatment, summary over RP1–RP5, RP7, RP8) is on record?
A: ≤ 11%

Q: And the “Annual bluegrass biomass RP1” value ([1]; RP1, aboveground dry biomass 28 days after treatment, foramsulfuron 29, imazamox 140, simazine 1120 g ha^-1)?
A: 60 % of nontreated control

Q: And the “Annual bluegrass control RP1” value ([1]; RP1 plants, 28 days after treatment, 2 to 3 leaf stage, foramsulfuron 29, imazamox 140, simazine 1120 g ha^−1)?
A: 8%

Q: And the “Annual bluegrass biomass RP2” value ([1]; RP2, aboveground dry biomass 28 days after treatment, foramsulfuron 29, imazamox 140, simazine 1120 g ha^-1)?
A: 45 % of nontreated control

Q: What about the “Annual bluegrass control RP2” value ([1]; RP2 plants, 28 days after treatment, 2 to 3 leaf stage, foramsulfuron 29, imazamox 140, simazine 1120 g ha^−1) of the same compound?
A: 11%

Q: What about the “Annual bluegrass biomass RP3” value ([1]; RP3, aboveground dry biomass 28 days after treatment, foramsulfuron 29, imazamox 140, simazine 1120 g ha^-1) of the same compound?
A: 48 % of nontreated control

Q: What about the “Annual bluegrass control RP3” value ([1]; RP3 plants, 28 days after treatment, 2 to 3 leaf stage, foramsulfuron 29, imazamox 140, simazine 1120 g ha^−1) of the same compound?
A: 11%

Q: What about the “Annual bluegrass biomass RP4” value ([1]; RP4, aboveground dry biomass 28 days after treatment, foramsulfuron 29, imazamox 140, simazine 1120 g ha^-1) of the same compound?
A: 41 % of nontreated control

Q: What about the “Annual bluegrass control RP4” value ([1]; RP4 plants, 28 days after treatment, 2 to 3 leaf stage, foramsulfuron 29, imazamox 140, simazine 1120 g ha^−1) of the same compound?
A: 5%

Q: What about the “Annual bluegrass biomass RP5” value ([1]; RP5, aboveground dry biomass 28 days after treatment, foramsulfuron 29, imazamox 140, simazine 1120 g ha^-1) of the same compound?
A: 62 % of nontreated control

Q: What about the “Annual bluegrass control RP5” value ([1]; RP5 plants, 28 days after treatment, 2 to 3 leaf stage, foramsulfuron 29, imazamox 140, simazine 1120 g ha^−1) of the same compound?
A: 10%

Q: And the “Annual bluegrass biomass RP6” value ([1]; RP6, aboveground dry biomass 28 days after treatment, foramsulfuron 29, imazamox 140, simazine 1120 g ha^-1)?
A: 49 % of nontreated control

Q: And the “Annual bluegrass control RP6” value ([1]; RP6 plants, 28 days after treatment, 2 to 3 leaf stage, foramsulfuron 29, imazamox 140, simazine 1120 g ha^−1)?
A: 24%

Q: What about the “Annual bluegrass biomass RP7” value ([1]; RP7, aboveground dry biomass 28 days after treatment, foramsulfuron 29, imazamox 140, simazine 1120 g ha^-1) of the same compound?
A: 52 % of nontreated control

Q: What about the “Annual bluegrass control RP7” value ([1]; RP7 plants, 28 days after treatment, 2 to 3 leaf stage, foramsulfuron 29, imazamox 140, simazine 1120 g ha^−1) of the same compound?
A: 10%

Q: And the “Annual bluegrass biomass RP8” value ([1]; RP8, aboveground dry biomass 28 days after treatment, foramsulfuron 29, imazamox 140, simazine 1120 g ha^-1)?
A: 51 % of nontreated control

Q: What about the “Annual bluegrass control RP8” value ([1]; RP8 plants, 28 days after treatment, 2 to 3 leaf stage, foramsulfuron 29, imazamox 140, simazine 1120 g ha^−1) of the same compound?
A: 5%

Q: What about the “Annual bluegrass control S” value ([1]; susceptible (S) plants, 28 days after treatment, 2 to 3 leaf stage, foramsulfuron 29, imazamox 140, simazine 1120 g ha^−1) of the same compound?
A: 93%

Q: What about the “Annual bluegrass biomass S” value ([1]; susceptible (S), aboveground dry biomass 28 days after treatment, foramsulfuron 29, imazamox 140, simazine 1120 g ha^-1) of the same compound?
A: 0 % of nontreated control

Q: What about the “Annual bluegrass control RP6” value ([2]; RP6, herbicide alone, foramsulfuron 29, trifloxysulfuron 27.8, imazaquin 27.5, bispyribac-sodium 70 g ha^−1) of the same compound?
A: 58%

Q: What about the “Annual bluegrass control RP6” value ([2]; RP6, herbicide with PBO 2100 g ha^−1 applied 60 min prior) of the same compound?
A: 31%

Q: And the “Annual bluegrass control RP6” value ([2]; RP6, herbicide with malathion 1000 g ha^−1 applied 60 min prior)?
A: 24%

Q: What about the “Annual bluegrass control RP7” value ([2]; RP7, herbicide alone, foramsulfuron 29, trifloxysulfuron 27.8, imazaquin 27.5, bispyribac-sodium 70 g ha^−1) of the same compound?
A: 28%

Q: And the “Annual bluegrass control RP7” value ([2]; RP7, herbicide with PBO 2100 g ha^−1 applied 60 min prior)?
A: 24%

Q: What about the “Annual bluegrass control RP7” value ([2]; RP7, herbicide with malathion 1000 g ha^−1 applied 60 min prior) of the same compound?
A: 22%

Q: What about the “Annual bluegrass control S” value ([2]; herbicide alone, foramsulfuron 29, trifloxysulfuron 27.8, imazaquin 27.5, bispyribac-sodium 70 g ha^−1) of the same compound?
A: 91%

Q: And the “Annual bluegrass control S” value ([2]; herbicide with PBO 2100 g ha^−1 applied 60 min prior)?
A: 95%

Q: And the “Annual bluegrass control S” value ([2]; herbicide with malathion 1000 g ha^−1 applied 60 min prior)?
A: 96%
